Results on 44 molecules are retold here after patent publication US10602743B2, “Method of inducing drought/salt tolerance using Bacillus megaterium” (Marrone Bio Innovations, Inc., priority 2012, dated 2020).

The subject of one data set is Bacillus megaterium H491. The data set is described as follows: Antibiotic susceptibility, antibiotic disks on Muller-Hinton medium. The data set is classed as cell-based. Also noted: key: +++ (very); ++ (somewhat); + (marginally); resistance is indicated by (−). Conditions: antibiotic disk, 48-hour incubation at 25° C. Here is the method: (§1) Antibiotic susceptibility of Bacillus megaterium strains H491, J142 and M018 was tested using antibiotic disks on Muller-Hinton medium as described in PML Microbiological's technical data sheet #535.

Another data set deals with Bacillus megaterium J142. The description is as above. The class given is cell-based. Also noted: key: +++ (very); ++ (somewhat); + (marginally); resistance is indicated by (−). Conditions: antibiotic disk, 48-hour incubation at 25° C. On the procedure:
as §1

The subject of another data set is Bacillus megaterium M018. The description is as above. Conditions: antibiotic disk, 48-hour incubation at 25° C. The data set is classed as cell-based. Details: key: +++ (very); ++ (somewhat); + (marginally); resistance is indicated by (−). Here is the method: as §1
Data set [1] concerns Bacillus megaterium strain H491. Put plainly: Chemical sensitivity, Biolog Phenotypic Microarray. The class given is cell-based. Conditions: Biolog Phenotypic Microarray; for Resistance of H491 observed in wells containing compound: at a maximum concentration of 4 ug; for H491 susceptible to compound: 25° C.
The test system of the next data set is Vero cells. Conditions: cited from earlier work.

For `CC1(C)S[C@@H]2[C@H](NC(=O)[C@H](N)c3ccccc3)C(=O)N2[C@H]1C(=O)O` [Ampicillin], in the data set on Bacillus megaterium H491, the “Susceptibility degree of H491” value was “+++”. Also, the “Susceptibility degree of J142” value in the data set on Bacillus megaterium J142 is recorded as “+++”. The “Susceptibility degree of M018” value in the data set with Bacillus megaterium M018 was “++”. Also, the “Resistance of H491 observed in wells containing compound” value (shortened to “Resistance of H491 observed”) in data set [1] is “Resistance”.
Consider `CO/N=C(\C(=O)N[C@@H]1C(=O)N2C(C(=O)O)=C(COC(N)=O)CS[C@H]12)c1ccco1` [Cefuroxime], for which the “Susceptibility degree of H491” value with Bacillus megaterium H491 is on record as “+++”. The “Susceptibility degree of J142” value in the data set on Bacillus megaterium J142 is reported as “+++”. In addition, in the data set on Bacillus megaterium M018, the “Susceptibility degree of M018” value is recorded as “+++”. Moreover, in data set [1], the “H491 susceptible to compound” value is given as “susceptible”.
Turning to `O=C(N[C@H](CO)[C@H](O)c1ccc([N+](=O)[O-])cc1)C(Cl)Cl` [Chloramphenicol], in the data set with Bacillus megaterium H491, the “Susceptibility degree of H491” value was “+++”. Moreover, the “Susceptibility degree of J142” value in the data set on Bacillus megaterium J142 is “+++”. Besides, in the data set with Bacillus megaterium M018, the “Susceptibility degree of M018” value was “++”.
Take `O=C(O)c1cn(C2CC2)c2cc(N3CCNCC3)c(F)cc2c1=O` [Ciprofloxacin]: in the data set on Bacillus megaterium H491, the “Susceptibility degree of H491” value is “+++”. The “Susceptibility degree of J142” value in the data set on Bacillus megaterium J142 is on record as “+++”. Besides, the “Susceptibility degree of M018” value in the data set with Bacillus megaterium M018 is “+++”.
As to `CC[C@H]1OC(=O)[C@H](C)[C@@H](O[C@H]2C[C@@](C)(OC)[C@@H](O)[C@H](C)O2)[C@H](C)[C@@H](O[C@@H]2O[C@H](C)C[C@H](N(C)C)[C@H]2O)[C@](C)(O)C[C@@H](C)C(=O)[C@H](C)[C@@H](O)[C@]1(C)O` [Erythromycin], the “Susceptibility degree of H491” value with Bacillus megaterium H491 was “+++”. Moreover, the “Susceptibility degree of J142” value with Bacillus megaterium J142 is “+++”. Besides, the “Susceptibility degree of M018” value with Bacillus megaterium M018 was “+++”. The “H491 susceptible to compound” value in data set [1] is listed as “susceptible”.
For the molecule `C[C@@H](O)[C@H]1C(=O)N2C(C(=O)O)=C(SCCN=CN)C[C@H]12` [Imipenem], the “Susceptibility degree of H491” value in the data set with Bacillus megaterium H491 is reported as “+++”. The “Susceptibility degree of J142” value in the data set on Bacillus megaterium J142 is on record as “+++”. For the same molecule, the “Susceptibility degree of M018” value in the data set on Bacillus megaterium M018 is “+++”.
`NC[C@H]1O[C@H](O[C@H]2[C@H](O)[C@@H](O[C@H]3O[C@H](CO)[C@@H](O)[C@H](N)[C@H]3O)[C@H](N)C[C@@H]2N)[C@H](O)[C@@H](O)[C@@H]1O` [Kanamycin]: the “Susceptibility degree of H491” value in the data set with Bacillus megaterium H491 is recorded as “+++”. Further, the “Susceptibility degree of J142” value with Bacillus megaterium J142 is reported as “+++”. Further, the “Susceptibility degree of M018” value with Bacillus megaterium M018 is on record as “+++”.
`Nc1ncnc2c1ncn2[C@@H]1O[C@H](CO)[C@H]1CO` [Oxetanocin, 9-[(2R,3R,4S)-3,4-bis(hydroxymethyl)-2-oxetanyl]adenine]: in the data set on Vero cells, the “Cytotoxicity against Vero cells (50% inhibition of cell growth)” value was 132.6 μg/well.
`CN(C)[C@@H]1C(O)=C(C(N)=O)C(=O)[C@@]2(O)C(O)=C3C(=O)c4c(O)cccc4[C@@](C)(O)[C@H]3[C@H](O)[C@@H]12` [Oxytetracycline]: the “Susceptibility degree of H491” value with Bacillus megaterium H491 is “+++”. The “Susceptibility degree of J142” value with Bacillus megaterium J142 is reported as “+++”. In the data set with Bacillus megaterium M018, the “Susceptibility degree of M018” value is listed as “+++”.
With `CCN1CCN(C(=O)N[C@@H](C(=O)N[C@@H]2C(=O)N3[C@@H]2SC(C)(C)[C@@H]3C(=O)O)c2ccccc2)C(=O)C1=O` [Piperacillin], in the data set with Bacillus megaterium H491, the “Susceptibility degree of H491” value is given as “+++”. Further, the “Susceptibility degree of J142” value in the data set with Bacillus megaterium J142 is listed as “+”. Besides, the “Susceptibility degree of M018” value with Bacillus megaterium M018 is given as “++”.
As for `[H]/N=C(/N)N[C@H]1[C@H](O)[C@@H](O)[C@H](O[C@@H]2O[C@@H](C)[C@](O)(C=O)[C@H]2O[C@@H]2O[C@@H](CO)[C@H](O)[C@@H](O)[C@@H]2NC)[C@@H](N/C(N)=N\[H])[C@@H]1O` [Streptomycin], the “Susceptibility degree of H491” value in the data set on Bacillus megaterium H491 is given as “+++”. Besides, the “Susceptibility degree of J142” value in the data set on Bacillus megaterium J142 is recorded as “+++”. Besides, the “Susceptibility degree of M018” value in the data set on Bacillus megaterium M018 is listed as “+”. In data set [1], the “H491 susceptible to compound” value is “susceptible”.
As to `CN(C)[C@@H]1C(O)=C(C(N)=O)C(=O)[C@@]2(O)C(O)=C3C(=O)c4c(O)cccc4[C@@](C)(O)[C@H]3C[C@@H]12` [Tetracycline], in the data set with Bacillus megaterium H491, the “Susceptibility degree of H491” value is “+++”. Also, the “Susceptibility degree of J142” value with Bacillus megaterium J142 is “+++”. Moreover, the “Susceptibility degree of M018” value in the data set with Bacillus megaterium M018 is given as “+++”.
For `CS(=O)(=O)c1ccc([C@@H](O)[C@@H](CO)NC(=O)C(Cl)Cl)cc1` [Thiamphenicol], the “H491 susceptible to compound” value in data set [1] is on record as “susceptible”.
`CSc1ccc2c(c1)N(CCC1CCCCN1C)c1ccccc1S2` (stereo not shown) [Thioridazine]: in data set [1], the “H491 susceptible to compound” value is “susceptible”.
Still for that read-out and setting: then `O=C(O)c1ccccc1S` [Thiosalicylate], with “susceptible”; and `CCS(=O)(=O)CCn1c([N+](=O)[O-])cnc1C` [Tinidazole], with “susceptible”.
Still for that read-out and setting: then `NC[C@H]1O[C@H](O[C@H]2[C@H](O)[C@@H](O[C@H]3O[C@H](CO)[C@@H](O)[C@H](N)[C@H]3O)[C@H](N)C[C@@H]2N)[C@H](N)C[C@@H]1O` [Tobramycin], with “susceptible”.
`Cc1ccc(N(SC(F)(Cl)Cl)S(=O)(=O)N(C)C)cc1` [Tolylfluanid]: the “H491 susceptible to compound” value in data set [1] is “susceptible”.
On to `CN1CCN(CCCN2c3ccccc3Sc3ccc(C(F)(F)F)cc32)CC1` [Trifluoperazine], for which the “H491 susceptible to compound” value in data set [1] is “susceptible”.
For `O=c1[nH]c(=O)n([C@H]2C[C@H](O)[C@@H](CO)O2)cc1C(F)(F)F` [Trifluorothymidine], the “H491 susceptible to compound” value in data set [1] is “susceptible”.
Turning to `CO[C@H]1C[C@H](O[C@H]2[C@H](C)[C@@H](O[C@@H]3O[C@H](C)C[C@H](N(C)C)[C@H]3OC(C)=O)[C@@H](C)C[C@@]3(CO3)C(=O)[C@H](C)[C@@H](OC(C)=O)[C@@H](C)[C@@H](C)OC(=O)[C@@H]2C)O[C@@H](C)[C@@H]1OC(C)=O` [Troleandomycin], in data set [1], the “H491 susceptible to compound” value is “susceptible”.
Consider `CC[C@H]1OC(=O)C[C@@H](O)[C@H](C)[C@@H](O[C@@H]2O[C@H](C)[C@@H](O[C@H]3C[C@@](C)(O)[C@@H](O)[C@H](C)O3)[C@H](N(C)C)[C@H]2O)[C@@H](CC=O)C[C@@H](C)C(=O)/C=C/C(C)=C/[C@@H]1CO[C@@H]1O[C@H](C)[C@@H](O)[C@@H](OC)[C@H]1OC` [Tylosin], for which the “H491 susceptible to compound” value in data set [1] is on record as “susceptible”.
Consider `CN[C@H](CC(C)C)C(=O)N[C@H]1C(=O)N[C@@H](CC(N)=O)C(=O)N[C@H]2C(=O)N[C@H]3C(=O)N[C@H](C(=O)N[C@H](C(=O)O)c4cc(O)cc(O)c4-c4cc3ccc4O)[C@H](O)c3ccc(c(Cl)c3)Oc3cc2cc(c3O[C@@H]2O[C@H](CO)[C@@H](O)[C@H](O)[C@H]2O[C@H]2C[C@](C)(N)[C@H](O)[C@H](C)O2)Oc2ccc(cc2Cl)[C@H]1O` [Vancomycin], for which, in data set [1], the “H491 susceptible to compound” value is “susceptible”.
Consider `NCC[C@H](O)C(=O)N[C@@H]1C[C@H](N)[C@@H](O[C@H]2O[C@H](CN)[C@@H](O)[C@H](O)[C@H]2O)[C@H](O)[C@H]1O[C@H]1O[C@H](CO)[C@@H](O)[C@H](N)[C@H]1O` [amikacin], for which the “Resistance of H491 observed” value in data set [1] was “Resistance”.
Still for that read-out and setting: then `CCn1cc(C(=O)O)c(=O)c2cc(F)c(N3CCNC(C)C3)c(F)c21` (stereo not shown) [lomefloxacin], with “Resistance”.
Still for that read-out and setting: then `CCn1cc(C(=O)O)c(=O)c2cc3c(cc21)OCO3` [oxolinic acid], with “Resistance”; and `CN[C@@H]1[C@H](O)[C@H](NC)[C@H]2O[C@@]3(O)C(=O)C[C@@H](C)O[C@H]3O[C@@H]2[C@H]1O` [spectinomycin], with “Resistance”.
On the same count and under the same terms, then `Cc1cc(C)nc(NS(=O)(=O)c2ccc(N)cc2)n1` [sulfamethazine], with “Resistance”.
On to `O=C(O)/C=C/c1ccccc1` [trans-Cinnamic acid], for which the “H491 susceptible to compound” value in data set [1] was “susceptible”.
Still for that read-out and setting: then Acriflavine, with “susceptible”.
Regarding Capreomycin, the “H491 susceptible to compound” value in data set [1] is on record as “susceptible”.
In the case of Gentamicin, the “Susceptibility degree of H491” value in the data set on Bacillus megaterium H491 is “+++”. Also, the “Susceptibility degree of J142” value in the data set with Bacillus megaterium J142 is on record as “+++”. In addition, the “Susceptibility degree of M018” value with Bacillus megaterium M018 is “+++”. For the same molecule, in data set [1], the “Resistance of H491 observed” value was “Resistance”.
Take Neomycin: in data set [1], the “H491 susceptible to compound” value is reported as “susceptible”.
The same measure, in the same setting: then Niaproof, with “susceptible”.
Turning to Penicillin, the “Susceptibility degree of H491” value in the data set on Bacillus megaterium H491 was “+++”. Besides, the “Susceptibility degree of J142” value with Bacillus megaterium J142 is reported as “−”. The “Susceptibility degree of M018” value with Bacillus megaterium M018 is listed as “++”.
Consider Penimepicycline, for which the “H491 susceptible to compound” value in data set [1] was “susceptible”.
On the same count and under the same terms, then Phleomycin, with “susceptible”; and Poly-L-lysine, with “susceptible”.
Turning to Polymyxin B, in data set [1], the “H491 susceptible to compound” value is given as “susceptible” and the “Resistance of H491 observed” value is listed as “Resistance”.
In the case of Protamine sulfate, the “H491 susceptible to compound” value in data set [1] is listed as “susceptible”.
Still for that read-out and setting: then Sodium metavanadate, with “susceptible”; and Spiramycin, with “susceptible”.
On to bleomycin, for which the “Resistance of H491 observed” value in data set [1] is “Resistance”.
As to colistin, the “Resistance of H491 observed” value in data set [1] is given as “Resistance”.
